Source: patent publication US20170290774A1, “NEUROKININ-1 RECEPTOR ANTAGONIST COMPOSITION FOR TREATMENT OF DISEASES AND CONDITIONS OF THE RESPIRATORY TRACT” (PLUS VITECH, S.L., priority 2014, published 2017)

Assays:
[1] = tested on: TGFβ3; test: Immunohistochemistry of TGFβ3 in respiratory tract tissue of sodium hypochlorite aerosol-treated rabbits; format: in vivo, New Zealand albino rabbits
From the text: It is known that the factors TGF-α, TGF-β 1, TGF-β 2, TGF-β 3, SPARC, MMP-3; MMP-7, MMP-9, MMP-11, MMP-13 and MMP-14, TGF-β, NF-kB, EGF, MMP-9, VEGF and TNF-α which are produced by lung cells (pneumocytes, fibroblasts and vascular endothelial cells) and inflammatory cells (macrophages, lymphocytes and polymorphonuclear leukocytes) are involved in the pathophysiology and development of said respiratory tract diseases. […] Herein, 27 New Zealand albino rabbits (New Zealand White Rabbit) with an initial average weight about 3 kg were used in this example. All subjects were administered an aerosol of a solution consisting of a mixture of water and sodium hypochlorite (35 g sodium hypochlorite per liter of water) at a rate of 5 mL of said solution by inhalation three times a day for 7 days (days 1 to 7 of experimentation). Subsequently, from days 3 to 7, a group of 3 rabbits (Group 1) was administered an oral dose of 10 mg/kg body weight per day, another group of 3 rabbits (Group 2) was administered an oral dose of 40 mg/kg body weight per day, a third group (Group 3) was administered an oral dose of 80 mg/kg body weight per day and a fourth group (Group 4) was administered an oral dose of 100 mg/kg body weight per day. […] This mixture was administered as an aerosol by inhalation, also from days 3 to 7, to a group of 3 rabbits (group 5) at a dose of 0.05 mg/kg body weight per day, to another group of three rabbits (Group 6) at a dose of 0.1 mg/kg body weight per day, to another group of three rabbits (Group 7) at a dose of 0.2 mg/kg body weight per day and to another group of three rabbits (Group 8) at a dose of 0.4 mg/kg body weight per day. A placebo consisting only of olive oil was administered from days 3 to 7 to a control group of 3 rabbits (placebo group). In parallel, 3 rabbits were kept under identical conditions but were not administered any treatment nor the aforementioned sodium hypochlorite solution (control group). […] On day 7 of the experiment all animals were euthanized and necropsied. […] Samples were taken at the peripheral level of the lung parenchyma, just below the pleural surface. Tissue samples were also taken from the nasal cavity, pharynx, larynx and bronchi. Immunohistochemistry studies were performed for all samples to evaluate the levels of the markers TGF-α, TGF-β 1, TGF-β 2, TGF-β 3 SPARC, MMP-3; MMP-7, MMP-9, MMP-11, MMP-14, TGF-β, TNF-α and VEGF. In said immunohistochemistry studies, a sample of each sample was dehydrated by treatment with increasing concentrations of ethanol and finally xylene. Subsequently said dried samples were embedded in paraffin, thus creating a block. Said paraffin blocks were cut on a microtome to a thickness of 5 μm, and the resulting sections (slices) were placed on slides suitable for conducting immunohistochemistry techniques. Subsequently, the sections were deparaffinised by immersion in xylene and then rehydrated through immersion in a series of solutions containing decreasing concentrations of ethanol and, finally, water. […] The samples were then allowed to cool to room temperature over 10 minutes. Endogenous peroxidase activity was blocked by treatment with 3% hydrogen peroxide over 30 min at room temperature. […] In order to verify the expression of NK1 receptors, the cell samples were incubated in the presence of anti-NK1 antibodies ([…], Sigma-Aldrich) diluted 1:1000 at 4° C. overnight. After this time they were washed in 0.05M Tris buffer at room temperature. Subsequently, Envision System-HRP (Dako) reagents were added for 30 min at room temperature. Once this time had expired, the samples were again washed with 0.05 M Tris buffer, and immunoreactivity was visualized by light microscopy with a chromogenic solution with 3,3'-diaminobenzidine (DAB+; Dako, USA). In order to differentiate the cell nuclei, these were lightly stained with haematoxylin. Samples that were not incubated with the primary antibody, but wherein this was replaced by a non-immune serum were used as negative controls. […]

[2] = Saturation concentration in different oils (soy, sunflower, rapeseed); format: physicochemical; conditions: 25° C.
Description: Each of said mixtures was continuously and gently stirred for 10 minutes at ambient temperature (25° C.) and then maintained at rest for 60 minutes. The saturation concentration was considered to be that which was immediately less than a concentration where deposition was observed, but in which no deposition of the active ingredient was observed.

Saturation concentration ([2]; Rapeseed oil): 80 nM
Saturation concentration ([2]; Soy oil): 60 nM
Saturation concentration ([2]; Sunflower oil): 70 nM
SMILES: C[C@@H](OC1OCCN(Cc2nc(=O)[nH][nH]2)C1c1ccc(F)cc1)c1cc(C(F)(F)F)cc(C(F)(F)F)c1 (stereo in doubt) [Aprepitant, 5-([(2R,3S)-2-((R)-1-[3,5-bis(trifluoromethyl)phenyl]ethoxy)-3-(4-fluorophenyl)morpholino]methyl)-1H-1,2,4-triazol-3(2H)-one]
Percent increase in TGFβ3 with respect to the control group ([1]; bronchial tissue, Group 1, oral 10 mg/kg per day): 672.56%
Percent increase in TGFβ3 with respect to the control group ([1]; bronchial tissue, Group 2, oral 40 mg/kg per day): 452.45%
Percent increase in TGFβ3 with respect to the control group ([1]; bronchial tissue, Group 3, oral 80 mg/kg per day): 345.32%
Percent increase in TGFβ3 with respect to the control group ([1]; bronchial tissue, Group 4, oral 100 mg/kg per day): 236.12%
% Med G5/C: percent increase in marker TGFβ with respect to the control group ([1]; bronchial tissue, Group 5): 604.34%
% Med G6/C: percent increase in marker TGFβ with respect to the control group ([1]; bronchial tissue, Group 6): 439.53%
% Med G7/C: percent increase in marker TGFβ with respect to the control group ([1]; bronchial tissue, Group 7): 234.56%
% Med G8/C: percent increase in marker TGFβ with respect to the control group ([1]; bronchial tissue, Group 8): 179.19%
Percent increase in TGFβ3 with respect to the control group ([1]; laryngeal tissue, Group 1, oral 10 mg/kg per day): 1,234.56%
Percent increase in TGFβ3 with respect to the control group ([1]; laryngeal tissue, Group 2, oral 40 mg/kg per day): 1,009.78%
Percent increase in TGFβ3 with respect to the control group ([1]; laryngeal tissue, Group 3, oral 80 mg/kg per day): 899.98%
Percent increase in TGFβ3 with respect to the control group ([1]; laryngeal tissue, Group 4, oral 100 mg/kg per day): 567.89%
Percent increase in TGFβ3 with respect to the control group ([1]; laryngeal tissue, Group 5, inhalation 0.05 mg/kg per day): 1,183.45%
Percent increase in TGFβ3 with respect to the control group ([1]; laryngeal tissue, Group 6, inhalation 0.1 mg/kg per day): 702.33%
Percent increase in TGFβ3 with respect to the control group ([1]; laryngeal tissue, Group 7, inhalation 0.2 mg/kg per day): 305.32%
Percent increase in TGFβ3 with respect to the control group ([1]; laryngeal tissue, Group 8, inhalation 0.4 mg/kg per day): 132.22%
Percent increase in TGFβ3 with respect to the control group ([1]; lung tissue, Group 1, oral 10 mg/kg per day): 835.84%
Percent increase in TGFβ3 with respect to the control group ([1]; lung tissue, Group 2, oral 40 mg/kg per day): 655.71%
Percent increase in TGFβ3 with respect to the control group ([1]; lung tissue, Group 3, oral 80 mg/kg per day): 496.55%
Percent increase in TGFβ3 with respect to the control group ([1]; lung tissue, Group 4, oral 100 mg/kg per day): 374.47%
Percent increase in TGFβ3 with respect to the control group ([1]; lung tissue, Group 5, inhalation 0.05 mg/kg per day): 775.37%
Percent increase in TGFβ3 with respect to the control group ([1]; lung tissue, Group 6, inhalation 0.1 mg/kg per day): 427.90%
Percent increase in TGFβ3 with respect to the control group ([1]; lung tissue, Group 7, inhalation 0.2 mg/kg per day): 215.59%
Percent increase in TGFβ3 with respect to the control group ([1]; lung tissue, Group 8, inhalation 0.4 mg/kg per day): 169.46%
Percent increase in TGFβ3 with respect to the control group ([1]; nasal cavity tissue, Group 1, oral 10 mg/kg per day): 2,813.99%
Percent increase in TGFβ3 with respect to the control group ([1]; nasal cavity tissue, Group 2, oral 40 mg/kg per day): 2,128.24%
Percent increase in TGFβ3 with respect to the control group ([1]; nasal cavity tissue, Group 3, oral 80 mg/kg per day): 1,451.25%
Percent increase in TGFβ3 with respect to the control group ([1]; nasal cavity tissue, Group 4, oral 100 mg/kg per day): 1,188.89%
Percent increase in TGFβ3 with respect to the control group ([1]; nasal cavity tissue, Group 5, inhalation 0.05 mg/kg per day): 2,168.67%
Percent increase in TGFβ3 with respect to the control group ([1]; nasal cavity tissue, Group 6, inhalation 0.1 mg/kg per day): 1,051.06%
Percent increase in TGFβ3 with respect to the control group ([1]; nasal cavity tissue, Group 7, inhalation 0.2 mg/kg per day): 482.03%
Percent increase in TGFβ3 with respect to the control group ([1]; nasal cavity tissue, Group 8, inhalation 0.4 mg/kg per day): 158.62%
Percent increase in TGFβ3 with respect to the control group ([1]; pharyngeal tissue, Group 1, oral 10 mg/kg per day): 967.72%
Percent increase in TGFβ3 with respect to the control group ([1]; pharyngeal tissue, Group 2, oral 40 mg/kg per day): 879.34%
Percent increase in TGFβ3 with respect to the control group ([1]; pharyngeal tissue, Group 3, oral 80 mg/kg per day): 659.59%
Percent increase in TGFβ3 with respect to the control group ([1]; pharyngeal tissue, Group 4, oral 100 mg/kg per day): 456.45%
Percent increase in TGFβ3 with respect to the control group ([1]; pharyngeal tissue, Group 5, inhalation 0.05 mg/kg per day): 879.45%
Percent increase in TGFβ3 with respect to the control group ([1]; pharyngeal tissue, Group 6, inhalation 0.1 mg/kg per day): 543.45%
Percent increase in TGFβ3 with respect to the control group ([1]; pharyngeal tissue, Group 7, inhalation 0.2 mg/kg per day): 309.45%
Percent increase in TGFβ3 with respect to the control group ([1]; pharyngeal tissue, Group 8, inhalation 0.4 mg/kg per day): 112.43%
